This is an account of results in patent US12281301B2, “Sequencing-based proteomics” (THE BROAD INSTITUTE, INC., priority 2018, dated 2025).

The assay concerns THP-1 monocytes. The assay is described as follows: PATTERNS protein quantification in tagged THP-1 monocyte library. Type of assay: cell-based, human. The conditions noted are these: 6 hours treatment; out of 400 proteins represented; including FOS and EGR1. As for the experimental part:
RNP-mediated gene tagging in other cell lines. Non-confluent cells were trypsinized and/or washed and adjusted to a density 2E7/ml in warm OptiMEM. 125 μl of cell suspension were mixed with 125 μl OptiMEM containing 2.5 μg donor DNA, 2.5 μg Cas9 protein, and 250 ng sgRNA. The mix was incubated for 15 minutes at room temperature, and transferred to a 4 mm electroporation cuvette (BioRad). Cells were electroporated on a Gene Pulser Xcell Electroporation System (BioRad) using the following settings: 265V, 975 μF, and 720 Ohm. Cells were recovered immediately in 5 ml of pre-warmed growth medium. For library generation in THP-1 and SKMEL28 cells, the above protocol was scaled up 10-fold.
FACS sorting. […]
Analysis of Silent Barcode Sequencing data. Silent barcode bases were extracted from raw sequencing reads and were converted to a 28-bit integer value. Using a barcode lookup table, reads were collapsed into target loci, and a matrix of screening conditions vs. sorted bins was incremented for every successfully mapped read. Total read counts in every position of the matrix were normalized by the ratio of sorted cells (from control sort for simplification) divided by total reads with correctly mapped 10 bp reverse primer sequence, which helped to even out PCR saturation artifacts. […] All data were analyzed using a custom JavaScript-based analysis tool that is available online.

Turning to `CCCCCCCCCCCCCC(=O)O[C@@H]1[C@@H](C)[C@@]2(O)[C@@H](C=C(CO)C[C@]3(O)C(=O)C(C)=C[C@@H]23)[C@@H]2C(C)(C)[C@]12OC(C)=O` [PMA, Phorbol 12-Myristate 13-Acetate], the “proteins whose levels were altered, by PATTERNS” value is “four proteins”.
